Conditions: pH 5

chemical stability of L-phe-O-< over L-phe-OMe: seven times higher | stability of the ester (hydrolysis to L-phenylalanine): stable
Compound: CC(C)OC(=O)[C@@H](N)Cc1ccccc1 [L-phe-O-<, L-phenylalanine isopropyl ester]
